According to patent publication US20100004485A1, “GABAPENTIN ENACARBIL SALTS AND PROCESSES FOR THEIR PREPARATION” (priority 2008, published 2010):

Tests used:
[1] = Solubility test in distilled water; assay type: physicochemical; conditions: for Solubility in water (class in words) / Solubility (g/ml water): distilled water; for Solubility (g/ml water): 100 mg sample
Method: Solubility was determined by placing 100 mg of sample material in a 50 ml glass beaker, adding 10 μL portions of distilled water and agitating until dissolved.

[2] = Hygroscopicity / water content at room conditions (TGA, FIG. 6); assay type: physicochemical; conditions: for Hygroscopicity: room conditions, GBPE-Ca compared to GBPE sodium salt
Method: Thermogravimetric Analysis (“TGA”) • TGA data obtained from TGA/DSC 1 of Mettler-Toledo or TA Instruments TGA 2959 • Heating range: 25-200 C; heating rate: 10° C./min, • Nitrogen flow 40 ml/min • Mass weight about 10 mg.

[3] = Thermogravimetric analysis (TGA): temperature at which thermal decomposition starts; assay type: physicochemical; conditions: 25-200 C, 10° C./min, nitrogen
[4] = long period of storing

Row | SMILES | Solubility in water (class in words) [1] | Hygroscopicity [2] | Solubility (g/ml water) [1] | Temperature at which decomposition starts [3] | Water content when kept in room conditions ([2]; FIG. 6) | Stability of form during storage [4] | Solubility compared to GBPE sodium salt [1]
1 | CC(OC(=O)NCC1(CC(=O)O)CCCCC1)OC(=O)C(C)C (stereo not drawn) [GBPE amorphous, 1-{[(α-isobutanoyloxyethoxy)carbonyl]-aminomethyl}-1-cyclohexane acetic acid, reference compound] | insoluble | – | – | – | – | – | –
2 | CC(OC(=O)NCC1(CC(=O)[O-])CCCCC1)OC(=O)C(C)C.[Na+] (stereo not shown) [GBPE sodium salt, reference compound] | – | extremely hydrophilic | – | – | – | – | –
3 | CC(OC(=O)NCC1(CC(=O)[O-])CCCCC1)OC(=O)C(C)C.CC(OC(=O)NCC1(CC(=O)[O-])CCCCC1)OC(=O)C(C)C.[Ba+2] (stereo not shown) [GBPE-Ba salt] | freely soluble (a compound having a solubility of about 0.1 to about 1 g/ml) | non-hygroscopic | 0.125 g/mL | 60 °C | contained no water | stability over a long period of time | –
4 | CC(OC(=O)NCC1(CC(=O)[O-])CCCCC1)OC(=O)C(C)C.CC(OC(=O)NCC1(CC(=O)[O-])CCCCC1)OC(=O)C(C)C.[Ca+2] (stereo not shown) [GBPE-Ca salt] | sparingly soluble (a compound having a solubility of about 0.01 g/ml to about 0.03 g/ml) | less hygroscopic | 0.016 g/mL | 70 °C | – | – | less soluble
5 | CC(OC(=O)NCC1(CC(=O)[O-])CCCCC1)OC(=O)C(C)C.CC(OC(=O)NCC1(CC(=O)[O-])CCCCC1)OC(=O)C(C)C.[Mg+2] (stereo not shown) [GBPE-Mg salt] | sparingly soluble (a compound having a solubility of about 0.01 g/ml to about 0.03 g/ml) | – | 0.020 g/mL | 70 °C | – | – | –
